Results on 18 molecules are retold here after patent US20260049089A1, “KRAS INHIBITOR COMPOUND” (SHANGHAI APEIRON THERAPEUTICS COMPANY LIMITED, priority 2022, published 2026).

pIC50: −log10 of the molar value. Values joined by “and” are separate entries in the source; they are usually repeats but may differ in a detail not shown here. Equal entries are not always repeated. Where two headings read alike, the source gives them in different places. Bounds are passed on as bounds.

Common to all, as to assay type: cell-based
In one assay the test system is pERK in AsPC-1 cells. In words: ERK phosphorylation cell assay, AsPC-1. Conditions: read-out: pERK AsPC-1_IC50. The method, then:
[Worded in the source for another cell line; this cell line is reported under the same test.] (§1) • Day 1: AGS cells were seeded into a 384-well cell culture plate and incubated overnight at 37° C. with 5% CO2 in a cell culture incubator. • Day 2: Compounds were added to the plate using an Echo550 liquid handler, followed by incubation at 37° C. with 5% CO2 in a cell culture incubator for 3 hours. Subsequently, the cells were fixed with paraformaldehyde, permeabilized with methanol, and blocked with blocking buffer. A primary antibody mixture (rabbit anti-pERK, mouse anti-GAPDH) was added, and the plate was incubated overnight at 4° C. • Day 3: The primary antibodies were removed, and a secondary antibody mixture (goat anti-rabbit 800CW, goat anti-mouse 680RD) was added. The plate was incubated at room temperature in the dark. After three washes with PBST, the plate was inverted and centrifuged for 1 minute. Fluorescence signal values were read using an Odyssey CLx imaging system.
(§2) [formula] • Negative control: DMSO • Positive control: 10 μM Reference • Fitted using XLFit 5.0 with the following parameters:
(§3) [formula] • X: Log of compound concentration • Y: Mean relative expression levels of p-ERK across replicates

Another assay concerns AGS cells. Kind of assay: 3D cell proliferation assay (CellTiter-Glo 3D), AGS. Conditions: 5 days, read-out: 3D Proliferation Inhibition AGS_IC50. The method, then:
(§4) Using a nanoliter liquid handling system (LABCYTE, P-0200), the diluted test compounds were added to a 384-well low-adsorption cell culture plate. Cells were seeded into the wells, and the plate was placed in an incubator at 37° C. with 5% CO2. After co-incubating the compounds and cells for 5 days, CellTiter-Glo® 3D reagent was added. Luminescence values were measured using an EnVision Multilabel Plate Reader (luminescence is proportional to the ATP content in the system, and ATP content directly reflects the number of viable cells). Finally, the IC50 values (half-maximal inhibitory concentrations) of the compounds were determined using non-linear fitting equations in XLFit software with the following parameters: […]
(§5) X: Logarithm of compound concentration • Y: Inhibition rate (%)
(§6) [formula] • Negative control: DMSO • Positive control: Medium only
On the technique in general: Cellular ATP, detected with luciferase, serves as a proxy for viable cell number.

In the next assay the test system is pERK in AGS cells. Kind of assay: ERK phosphorylation cell assay, AGS. Conditions: 3 hours compound incubation, read-out: pERK AGS_IC50. The method, then: as §1, §2, §3
In the next assay the test system is AsPC-1 cells. Kind of assay: 3D cell proliferation assay (CellTiter-Glo 3D), AsPC-1. Conditions: 5 days, read-out: 3D Proliferation Inhibition AsPC-1_IC50. On the procedure:
as §4, §5, §6

Setting [1] is: Homo sapiens, ASPC1, AsPC-1 cells.

As for `C=C1CN2C[C@H](F)C[C@]2(COc2nc(N3CCC[C@@](C)(O)C3)c3cc4c(c(F)c3n2)-c2cc(O)cc3ccc(F)c(c23)CCOCCN4C)C1` [Example 49], the pIC50 with pERK in AsPC-1 cells (setting [1]) is 7.77; in the assay on AGS cells (Homo sapiens, AGS, 120 h), 7.08; in the assay on pERK in AGS cells (Homo sapiens, AGS, 3 h) it was 7.70; with AsPC-1 cells (Homo sapiens, ASPC1, 120 h), 6.95.
Take `C=C1CN2CCCC2(COc2nc(N3CCC[C@@](C)(O)C3)c3cc4c(c(F)c3n2)-c2cc(O)cc3ccc(F)c(c23)CCOCCN4C)C1` (some centres unmarked) [Example 48]: the pIC50 is 7.77 in the assay on pERK in AsPC-1 cells (setting [1]); 8.13 in the assay on AGS cells (Homo sapiens, AGS, 120 h); 8.48 in the assay on pERK in AGS cells (Homo sapiens, AGS, 3 h); 7.38 with AsPC-1 cells (Homo sapiens, ASPC1, 120 h).
On to `C[C@@]1(O)CCCN(c2nc(OCC3(N4CCOCC4)CC3)nc3c(F)c4c(cc23)NCCCCCc2c(F)ccc3cc(O)cc-4c23)C1` (single isomer, unassigned) [Example 33A], for which the pIC50 is under 5.00 with pERK in AsPC-1 cells (setting [1]); 5.64 in the assay with AGS cells (Homo sapiens, AGS, 120 h); under 5.00 in the assay on pERK in AGS cells (Homo sapiens, AGS, 3 h); 5.83 with AsPC-1 cells.
In the case of `C[C@@]1(O)CCCN(c2nc(OC[C@@]34CCCN3C[C@H](F)C4)nc3c(F)c4c(cc23)NCCCCCc2c(F)ccc3cc(O)cc-4c23)C1` [Example 16, 3,15-difluoro-13-(((2R,7aS)-2-fluorotetrahydro-1H-pyrrolidin-7a(5H)-yl)methoxy)-11-((R)-3-hydroxy-3-methylpiperidin-1-yl)-4,5,6,7,8,9-hexahydronaphthol[1′,8′:4,5,6][1]azacycloundecane [2,3-g]quinazolin-17-ol], the pIC50 was 6.99 in the assay on pERK in AsPC-1 cells (setting [1]); 7.08 with AGS cells (Homo sapiens, AGS, 120 h); 7.51 with pERK in AGS cells (Homo sapiens, AGS, 3 h); 6.54 with AsPC-1 cells (Homo sapiens, ASPC1, 120 h).
As to `[2H]C([2H])([2H])N1CCOCCc2c(F)ccc3cc(O)cc(c23)-c2c1cc1c(N3CCC[C@@](C)(O)C3)nc(OC[C@@]34CCCN3C[C@H](F)C4)nc1c2F` [Example 46, 3,15-difluoro-13-(((2R,7aS)-2-fluorotetrahydro-1H-pyrazin-7a(5H)-yl)methoxy)-11-((R)-3-hydroxy-3-methylpiperidin-1-yl)-9-(trideuteromethyl)-4,5,8,9-tetrahydro-7H-naphtho[1′,8′:7,8,9][1]oxa[4]azacycloundeca[5,6-g]quinazoline-17-ol], the pIC50 with pERK in AsPC-1 cells (setting [1]) is 7.96; in the assay on AGS cells (Homo sapiens, AGS, 120 h) it was 7.92; with pERK in AGS cells (Homo sapiens, AGS, 3 h), 8.24; in the assay on AsPC-1 cells (Homo sapiens, ASPC1, 120 h), 7.52.
As to `O=C1CCCCCc2c(F)ccc3cc(O)cc(c23)-c2c(cc3c(N4CC5CCC(C4)N5)nc(OC[C@@]45CCCN4C[C@H](F)C5)nc3c2F)N1` [Example 9, 12-((1R,5S)-3,8-diazabicyclo[3.2.1]octan-3-yl)-3,16-difluoro-14-(((2R,7aS)-2-fluorotetrahydro-1H-pyrazin-7a(5H)-yl)methoxy)-18-hydroxy-5,6,7,8-tetrahydro-4H-naphtho[1′,8′:4,5,6][1]azacyclododecino[2,3-g]quinazolin-9(10H)-one], the pIC50 in the assay with pERK in AsPC-1 cells (AsPC-1 cells) is 6.93; in the assay with AGS cells (Homo sapiens, AGS, 120 h) it was 7.29; in the assay with pERK in AGS cells, 7.74; with AsPC-1 cells it was 6.21.
As to `C=C1CN2CCC[C@@]2(COc2nc(N3CCC[C@@](C)(O)C3)c3cc4c(c(F)c3n2)-c2cc(N)cc3ccc(F)c(c23)CCOCCN4C)C1` [Example 56, (R)-1-(17-amino-3,15-difluoro-9-methyl-13-(((S)-2-methylenetetrahydro-1H-pyrazin-7a(5H)-yl)methoxy)-4,5,8,9-tetrahydro-7H-naphtho[1′,8′:7,8,9][1]oxa[4]azacycloundeca[5,6-g]quinazoline-11-yl)-3-methylpiperidin-3-ol], the pIC50 in the assay on pERK in AsPC-1 cells (setting [1]) is 6.15; in the assay with AGS cells (Homo sapiens, AGS, 120 h) it was 6.18; in the assay with pERK in AGS cells (Homo sapiens, AGS, 3 h), 6.69; in the assay with AsPC-1 cells (Homo sapiens, ASPC1, 120 h) it was 5.84.
As for `C=C1CN2CCC[C@@]2(COc2nc(N3CCC[C@@](C)(O)C3)c3cc4c(c(F)c3n2)-c2cc(O)cc3ccc(F)c(c23)CCOCCN4)C1` (single isomer, unassigned) [Example 42D], the pIC50 with pERK in AsPC-1 cells (AsPC-1 cells) is 7.92; in the assay on AGS cells it was 8.23; with pERK in AGS cells, 8.66; in the assay on AsPC-1 cells, 7.41.
With `C[C@@]1(O)CCCN(c2nc(OCC3(CN4CCOCC4)CC3)nc3c(F)c4c(cc23)NCCCCCc2c(F)ccc3cc(O)cc-4c23)C1` [Example 26], the pIC50 was 6.63 in the assay on pERK in AsPC-1 cells (AsPC-1 cells); 6.66 in the assay with pERK in AsPC-1 cells (setting [1]); 6.41 with AGS cells (Homo sapiens, AGS, 120 h); 7.13 with pERK in AGS cells; 7.29 in the assay with pERK in AGS cells (Homo sapiens, AGS, 3 h); 6.22 in the assay on AsPC-1 cells (Homo sapiens, ASPC1, 120 h).
On to `CN1CCC[C@H]1COc1nc(N2CCC[C@@](C)(O)C2)c2cc3c(c(F)c2n1)-c1cc(O)cc2ccc(F)c(c12)CCCCCN3` (single isomer, unassigned) [Example 28B], for which the pIC50 in the assay on pERK in AsPC-1 cells (AsPC-1 cells) is under 5.00; in the assay with AGS cells, 5.47; in the assay with pERK in AGS cells, under 5.00; in the assay with AsPC-1 cells it was 5.45.
Consider `C[C@@]1(O)CCCN(c2nc(OC[C@@]34CCCN3C[C@H](F)C4)nc3c(F)c4c(cc23)NCCOCCc2c(F)ccc3cccc-4c23)C1` (single isomer, unassigned) [Example 52B], for which the pIC50 is under 5.00 with pERK in AsPC-1 cells (AsPC-1 cells); under 5.00 in the assay with AGS cells (Homo sapiens, AGS, 120 h); under 5.00 in the assay on pERK in AGS cells; under 5.00 with AsPC-1 cells (Homo sapiens, ASPC1, 120 h).
In the case of `CN(C)C1CN(c2nc(N3CCC[C@@](C)(O)C3)c3cc4c(c(F)c3n2)-c2cc(O)cc3ccc(F)c(c23)CCCCCN4)C1` [Example 39, (R)-13-(3-(dimethylamino)azetidinyl)-3,15-difluoro-11-(3-hydroxy-3-methylpiperidin-1-yl)-4,5,6,7,8,9-hexahydro-naphtho[1′,8′:4,5,6][1]azacycloundecino[2,3-g]quinazoline-17-ol], the pIC50 in the assay with pERK in AsPC-1 cells (setting [1]) was under 5.00; with AGS cells (Homo sapiens, AGS, 120 h) it was 5.19; in the assay with pERK in AGS cells (Homo sapiens, AGS, 3 h) it was under 5.00; in the assay with AsPC-1 cells (Homo sapiens, ASPC1, 120 h), under 5.00.
`C[C@@]1(O)CCCN(c2nc(OCC34CCCN3CCC4)nc3c(F)c4c(cc23)NCCCCCc2c(F)ccc3cc(O)cc-4c23)C1` (single isomer, unassigned) [Example 21A]: the pIC50 was 6.03 and 6.14 in the assay on pERK in AsPC-1 cells (AsPC-1 cells); 6.65 in the assay on AGS cells (Homo sapiens, AGS, 120 h); 7.03 and 7.00 in the assay on pERK in AGS cells; 5.58 in the assay on AsPC-1 cells (Homo sapiens, ASPC1, 120 h).
As for `C[C@@]1(O)CCCN(c2nc(OC[C@@]34CCCN3C[C@H](F)C4)nc3c(F)c4c(cc23)NCCOCCc2c(F)ccc3cc(O)cc-4c23)C1` [Example 43B], the pIC50 was 6.97 with pERK in AsPC-1 cells (setting [1]); 6.83 in the assay with AGS cells (Homo sapiens, AGS, 120 h); 7.21 with pERK in AGS cells (Homo sapiens, AGS, 3 h); 6.36 in the assay on AsPC-1 cells (Homo sapiens, ASPC1, 120 h).
`CN1CCCCc2c(F)ccc3cc(O)cc(c23)-c2c1cc1c(N3CC4CCC(C3)N4)nc(OC[C@@]34CCCN3C[C@H](F)C4)nc1c2F` [Example 3, 10-((1R,5S)-3,8-Diazabicyclo[3.2.1]octan-3-yl)-3,14-difluoro-12-(((2R,7aS)-2-fluorotetrahydro-1H-pyrazin-7a(5H)-yl)methoxy)-8-methyl-5,6,7,8-tetrahydro-4H-naphtho[1′,8′:4,5,6]acridin[2,3-g]quinazolin-16-ol]: the pIC50 was 6.98 in the assay with pERK in AsPC-1 cells (setting [1]); 6.48 in the assay on AGS cells (Homo sapiens, AGS, 120 h); 7.33 with pERK in AGS cells (Homo sapiens, AGS, 3 h); 6.41 with AsPC-1 cells (Homo sapiens, ASPC1, 120 h).
Consider `C[C@H](Oc1nc(N2CCC[C@@](C)(O)C2)c2cc3c(c(F)c2n1)-c1cc(O)cc2ccc(F)c(c12)CCCCCN3)[C@@H]1CCCN1C` [Example 35, 3,15-Difluoro-11-((R)-3-hydroxy-3-methylpiperidin-1-yl)-13-((S)-1-((S)-1-methylpyrrolidin-2-yl)ethoxy)-4,5,6,7,8,9-hexahydro-naphtho[1′,8′:4,5,6][1]azacycloundecino[2,3-g]quinazoline-17-ol], for which the pIC50 with pERK in AsPC-1 cells (setting [1]) is under 5.00; in the assay with AGS cells (Homo sapiens, AGS, 120 h), 5.57; in the assay with pERK in AGS cells (Homo sapiens, AGS, 3 h), 5.34; with AsPC-1 cells (Homo sapiens, ASPC1, 120 h) it was 5.55.
In the case of `C=C1CN2CCC[C@@]2(COc2nc(N3CCC[C@@](C)(O)C3)c3cc4c(c(F)c3n2)-c2cc(O)cc3ccc(F)c(c23)CCOCCN4)C1` (single isomer, unassigned) [Example 42B], the pIC50 was 7.13 in the assay with pERK in AsPC-1 cells (AsPC-1 cells), 7.21 with AGS cells, 7.92 with pERK in AGS cells and 6.47 in the assay on AsPC-1 cells.
For `CN1CCOCCc2c(F)ccc3cc(O)cc(c23)-c2c1cc1c(N3CCC[C@@](C)(O)C3)nc(OC[C@@]34CCCN3C[C@H](F)C4)nc1c2F` [Example 47, 3,15-difluoro-13-(((2R,7aS)-2-fluorotetrahydro-1H-pyrazin-7a(5H)-yl)methoxy)-11-((R)-3-hydroxy-3-methylpiperidin-1-yl)-9-methyl-4,5,8,9-tetrahydro-7H-naphtho[1′,8′:7,8,9][1]oxa[4]azacycloundeca[5,6-g]quinazoline-17-ol], the pIC50 with pERK in AsPC-1 cells (AsPC-1 cells) is 8.10; with AGS cells, 8.06; with pERK in AGS cells it was 8.57; in the assay on AsPC-1 cells it was 7.55.
